Reference: patent US4774232A, “Bile-substituting method of treatment for the promotion of fat digestion” (Chinoin Gyogyszer Es Vegyeszeti Termak Ek Gyara Rt, priority 1985, dated 1988)

Legend:
[1] = Absorption and elimination of DIMEB in animal experiments; format: in vivo
bile-deficient rats = assay: Absorption of 3H-stearic acid with oral DIMEB in bile-deficient rats (Example 10); format: in vivo; settings: for Radioactivity in 10 ml of blood: 14.7 mg 3H-stearic acid + 50 mg DIMEB oral
Experimental: The substitution of the bile by DIMEB in bile-deficiency was studied in rats after ligating the bile duct.
After being starved for 24 hours, the animals were subjected to the bile duct-ligation under nembutal anaesthesia. The absorption was investigated in the 48th hour after starving the animals overnight. The animals were also starved in the course of the examination; but received water ad libitum. One group (3 animals) received 12.8 mg of ^3 H-stearic acid (specific radioactivity: 171.12 kBq/mg), whereas the other group (3 animals) was administered 14.7 mg of ^3 H-stearic acid and 50 mg of DIMEB in 2 ml of distilled water. The substances were suspended in the distilled water ultrasonically. Thereafter, the radioactivity level of the blood was measured at various intervals, by using the liquid scintillation method (Table XI).

mice = assay: Toxicity on mice; format: in vivo; settings: doses up to 3000 mg/kg of body-weight
intact rats = assay: Lipid absorption in intact rats after oral vegetable oil with DIMEB; format: in vivo; settings: for Plasma triglyceride concentration / Free fatty acid concentration in the plasma: normal rats; for Plasma triglyceride concentration: 2 ml vegetable oil + 50 mg DIMEB oral; for Free fatty acid concentration in the plasma: 2 ml vegetable oil + DIMEB oral
Experimental: The effect of DIMEB on the absorption of a vegetable oil was investigated in intact rats. The aim of this experiment was to elucidate whether the emulsification and intestinal absorption of the vegetable oil were stimulated by DIMEB in addition to the physiological bile functions. […] Thereafter, the triglyceride and free fatty acid concentration of the blood plasma were examined at various intervals. (Tables II and III). The triglyceride concentration of the plasma was determined by using the method of E. Van Handel [Clin. […] G. Dumcombe [Biochem.

[2] = system: bile duct-ligated rabbits; assay: Substitution of the bile in bile duct-ligated rabbits (plasma triglyceride); format: in vivo, rabbits (Orychtolagus cuniculus); settings: for Plasma triglyceride concentration: rabbits after bile duct ligature
Experimental: The triglyceride concentration of the plasma was determined by using the method of E. Van Handel [Clin. Chem.. 7, 249 (1961)], whereas the concentration of the free fatty acids was measured according to W. G. Dumcombe [Biochem. J. 88, 7 (1963)].
The experimental animals were prevented in using their own bile for digestion of lipids by ligating their bile duct. Triglyceride concentration of the blood plasma was investigated after oral administration of lipids under normal pancreas secretion.
The experimental rabbits (Orychtolagus cuniculus) were kept at a standard food fo 10 days before the experiment. The organic material composition of the animal food was as follows:
The energy content of 100 g of the food amounted to […]. The animals were starved for 12 to 24 hours before the surgical operations but received water ad libitum. Within the same experimental series, rabbits of the same sex with a body weight of 2500 to 3000 g were used and the surgical operations were concurrently carried out. Pseudo-operated animals were used as controls. The operated experimental animals were used for the investigations after 48 hours. The test substances were orally administered to the animals through a gastric tube. The blood samples were taken from the auricular marginal vene.
In the first series of experiments, the first group of animals were given 3 ml of sunflower oil, the second group of animals were given 3 ml of sunflower oil and 200 mg of DIMEB dissolved in 3 ml of water. The control (speudo-operated) animals received 6 ml of water.
It is known that the digestion of the fats is a slower process than that of the oils. Thus, in the second series of experiments, the changes of the plasma triglyceride concentration of bile duct-ligated rabbits were followed after the oral administration of 5 ml of swine fat and 5 ml of swine fat together with 300 mg of DIMEB, respectively. The control group was given 5 ml of water (Table V). The quantity of the triglycerides was increased by about 100 percent as compared to the other two groups within one hour following the treatment. This tendency permanently remained during the experimental period lasting 6 hours.

With `COC[C@H]1O[C@@H]2O[C@H]3[C@H](O)[C@@H](OC)[C@@H](O[C@H]4[C@H](O)[C@@H](OC)[C@@H](O[C@H]5[C@H](O)[C@@H](OC)[C@@H](O[C@H]6[C@H](O)[C@@H](OC)[C@@H](O[C@H]7[C@H](O)[C@@H](OC)[C@@H](O[C@H]8[C@H](O)[C@@H](OC)[C@@H](O[C@H]1[C@H](O)[C@H]2OC)O[C@@H]8COC)O[C@@H]7COC)O[C@@H]6COC)O[C@@H]5COC)O[C@@H]4COC)O[C@@H]3COC` [DIMEB, heptakis(2,6-di-O-methyl)-β-cyclodextrin] the “Time to complete elimination through the kidneys” value ([1]; after intravenous administration) was ≤ 6 h, the “Absorption after oral administration” value ([1]; animal experiments, oral) was “not absorbed” and the “Radioactivity in 10 ml of blood” value (bile-deficient rats; 1 h, animal 4) was 0.86 percentage. The “Radioactivity in 10 ml of blood” value (bile-deficient rats; 1 h, animal 5) was 3.45 percentage, the “Radioactivity in 10 ml of blood” value (bile-deficient rats; 1 h, animal 6) was 1.61 percentage and the “Radioactivity in 10 ml of blood” value (bile-deficient rats; 1 h, mean) was 1.97 percentage. The “Radioactivity in 10 ml of blood” value (bile-deficient rats; 2 h, animal 4) was 1.05 percentage, the “Radioactivity in 10 ml of blood” value (bile-deficient rats; 2 h, animal 5) was 3.25 percentage and the “Radioactivity in 10 ml of blood” value (bile-deficient rats; 2 h, animal 6) was 2.56 percentage. For the same compound, the “Radioactivity in 10 ml of blood” value (bile-deficient rats; 2 h, mean) was 2.29 percentage, the “Radioactivity in 10 ml of blood” value (bile-deficient rats; 3 h, animal 4) was 1.14 percentage and the “Radioactivity in 10 ml of blood” value (bile-deficient rats; 3 h, animal 5) was 3.22 percentage. For the same compound, the “Radioactivity in 10 ml of blood” value (bile-deficient rats; 3 h, animal 6) was 2.39 percentage, the “Radioactivity in 10 ml of blood” value (bile-deficient rats; 3 h, mean) was 2.25 percentage and the “Radioactivity in 10 ml of blood” value (bile-deficient rats; 4 h, animal 4) was 1.19 percentage. For the same compound, the “Radioactivity in 10 ml of blood” value (bile-deficient rats; 4 h, animal 5) was 3.06 percentage, the “Radioactivity in 10 ml of blood” value (bile-deficient rats; 4 h, animal 6) was 2.28 percentage and the “Radioactivity in 10 ml of blood” value (bile-deficient rats; 4 h, mean) was 2.18 percentage. The “Radioactivity in 10 ml of blood” value (bile-deficient rats; 5 h, animal 4) was 1.24 percentage, the “Radioactivity in 10 ml of blood” value (bile-deficient rats; 5 h, animal 5) was 3.08 percentage and the “Radioactivity in 10 ml of blood” value (bile-deficient rats; 5 h, animal 6) was 2.27 percentage. For the same compound, the “Radioactivity in 10 ml of blood” value (bile-deficient rats; 5 h, mean) was 2.20 percentage, the “Radioactivity in 10 ml of blood” value (bile-deficient rats; 6 h, animal 4) was 1.25 percentage and the “Radioactivity in 10 ml of blood” value (bile-deficient rats; 6 h, animal 5) was 2.91 percentage. For the same compound, the “Radioactivity in 10 ml of blood” value (bile-deficient rats; 6 h, animal 6) was 2.56 percentage, the “Radioactivity in 10 ml of blood” value (bile-deficient rats; 6 h, mean) was 2.24 percentage and the “Radioactivity in 10 ml of blood” value (bile-deficient rats; 7 h, animal 4) was 1.33 percentage. For the same compound, the “Radioactivity in 10 ml of blood” value (bile-deficient rats; 7 h, animal 5) was 3.03 percentage, the “Radioactivity in 10 ml of blood” value (bile-deficient rats; 7 h, animal 6) was 2.67 percentage and the “Radioactivity in 10 ml of blood” value (bile-deficient rats; 7 h, mean) was 2.34 percentage. The “Radioactivity in 10 ml of blood” value (bile-deficient rats; 8 h, animal 4) was 1.37 percentage, the “Radioactivity in 10 ml of blood” value (bile-deficient rats; 8 h, animal 5) was 3.13 percentage and the “Radioactivity in 10 ml of blood” value (bile-deficient rats; 8 h, animal 6) was 2.58 percentage. For the same compound, the “Radioactivity in 10 ml of blood” value (bile-deficient rats; 8 h, mean) was 2.36 percentage, the “Radioactivity in 10 ml of blood” value (bile-deficient rats; 10 h, animal 4) was 1.29 percentage and the “Radioactivity in 10 ml of blood” value (bile-deficient rats; 10 h, animal 5) was 3.26 percentage. For the same compound, the “Radioactivity in 10 ml of blood” value (bile-deficient rats; 10 h, animal 6) was 2.67 percentage, the “Radioactivity in 10 ml of blood” value (bile-deficient rats; 10 h, mean) was 2.41 percentage and the “Radioactivity in 10 ml of blood” value (bile-deficient rats; 24 h, animal 4) was 1.60 percentage. For the same compound, the “Radioactivity in 10 ml of blood” value (bile-deficient rats; 24 h, animal 5) was 4.56 percentage, the “Radioactivity in 10 ml of blood” value (bile-deficient rats; 24 h, animal 6) was 4.00 percentage and the “Radioactivity in 10 ml of blood” value (bile-deficient rats; 24 h, mean) was 3.39 percentage. For the same compound, the “Blood level relative to animals treated with stearic acid only” value (bile-deficient rats; 24th hour) was 1.4 times, the Toxic phenomena (mice) was “no toxic phenomena” and the “Increase of plasma triglyceride concentration” value (intact rats; intact rats, oil + 50 mg DIMEB, 4th hour) was “more than 100%”. The Plasma triglyceride concentration (intact rats; Hour 1) was 44 ± 6 mg/100 ml, the Plasma triglyceride concentration (intact rats; Hour 2.5) was 61 ± 18 mg/100 ml and the Plasma triglyceride concentration (intact rats; Hour 4) was 121 ± 7 mg/100 ml. For the same compound, the Plasma triglyceride concentration (intact rats; Hour 6) was 122 ± 15 mg/100 ml, the “Free fatty acid concentration in the plasma” value (from here on “Free fatty acid concentration”) (intact rats; Hour 1) was 326 ± 15 mg/100 ml and the “Free fatty acid concentration” value (intact rats; Hour 2.5) was 494 ± 183 mg/100 ml. The “Free fatty acid concentration” value (intact rats; Hour 4) was 641 ± 126 mg/100 ml, the “Free fatty acid concentration” value (intact rats; Hour 6) was 347 ± 65 mg/100 ml and the “Plasma triglyceride concentration compared with the group treated with oil alone” value ([2]; bile duct-ligated rabbits, 3 ml sunflower oil + 200 mg DIMEB, 6th hour) was “nearly three-fold”. For the same compound, the “Increase of the quantity of plasma triglycerides compared to the other two groups” value ([2]; bile duct-ligated rabbits, 5 ml swine fat + 300 mg DIMEB, within one hour following the treatment) was “about 100%”, the Plasma triglyceride concentration ([2]; 3 ml sunflower oil + 200 mg DIMEB oral, Hour 0) was 52 ± 19 mg/100 ml and the Plasma triglyceride concentration ([2]; 3 ml sunflower oil + 200 mg DIMEB oral, Hour 1) was 96 ± 32 mg/100 ml. The Plasma triglyceride concentration ([2]; 3 ml sunflower oil + 200 mg DIMEB oral, Hour 2.5) was 87 ± 30 mg/100 ml, the Plasma triglyceride concentration ([2]; 3 ml sunflower oil + 200 mg DIMEB oral, Hour 4) was 61 ± 14 mg/100 ml and the Plasma triglyceride concentration ([2]; 3 ml sunflower oil + 200 mg DIMEB oral, Hour 6) was 125 ± 3 mg/100 ml. For the same compound, the Plasma triglyceride concentration ([2]; 5 ml swine fat + 300 mg DIMEB oral, Hour 0) was 58 ± 19 mg/100 ml, the Plasma triglyceride concentration ([2]; 5 ml swine fat + 300 mg DIMEB oral, Hour 1) was 104 ± 30 mg/100 ml and the Plasma triglyceride concentration ([2]; 5 ml swine fat + 300 mg DIMEB oral, Hour 2.5) was 92 ± 26 mg/100 ml. It also gave a Plasma triglyceride concentration ([2]; 5 ml swine fat + 300 mg DIMEB oral, Hour 4) of 83 ± 25 mg/100 ml and a Plasma triglyceride concentration ([2]; 5 ml swine fat + 300 mg DIMEB oral, Hour 6) of 125 ± 3 mg/100 ml.
